What was measured:
Type in all cases: in vivo
[1] = tested on: soybean (Glycine max var. Winchester); test: Preemergence herbicidal activity, soybean; conditions: Rate of Application 0.3 Kg/Ha, examined after 12-17 days
[2] = tested on: wheat (Triticum aestivum var. Lew); test: Preemergence herbicidal activity, wheat; conditions: Rate of Application 0.3 Kg/Ha, examined after 12-17 days
[3] = tested on: field corn (Zea mays var. Pioneer 3732); test: Preemergence herbicidal activity, corn; conditions: Rate of Application 0.3 Kg/Ha, examined after 12-17 days
[4] = tested on: velvetleaf (Abutilon theophrasti); test: Preemergence herbicidal activity, velvetleaf; conditions: Rate of Application 0.3 Kg/Ha, examined after 12-17 days
[5] = tested on: morningglory (Ipomea lacunosa or Ipomea hederacea); test: Preemergence herbicidal activity, morningglory; conditions: Rate of Application 0.3 Kg/Ha, examined after 12-17 days
[6] = tested on: common chickweed (Stellaria media); test: Preemergence herbicidal activity, chickweed; conditions: Rate of Application 0.3 Kg/Ha, examined after 12-17 days
[7] = tested on: common cocklebur (Xanthium strumarium L.); test: Preemergence herbicidal activity, cocklebur; conditions: Rate of Application 0.3 Kg/Ha, examined after 12-17 days
[8] = tested on: blackgrass (Aloepecurus myosuroides); test: Preemergence herbicidal activity, blackgrass; conditions: Rate of Application 0.3 Kg/Ha, examined after 12-17 days
[9] = tested on: green foxtail (Setaria viridis); test: Preemergence herbicidal activity, green foxtail; conditions: Rate of Application 0.3 Kg/Ha, examined after 12-17 days
[10] = tested on: Johnsongrass (Sorghum halepense); test: Preemergence herbicidal activity, johnsongrass; conditions: Rate of Application 0.3 Kg/Ha, examined after 12-17 days
[11] = tested on: soybean (Glycine max var. Winchester); test: Postemergence herbicidal activity, soybean; conditions: rate of application 0.3 Kg/Ha, rated after 12-17 days
[12] = tested on: wheat (Triticum aestivum var. Lew); test: Postemergence herbicidal activity, wheat; conditions: rate of application 0.3 Kg/Ha, rated after 12-17 days
[13] = tested on: field corn (Zea mays var. Pioneer 3732); test: Postemergence herbicidal activity, corn; conditions: rate of application 0.3 Kg/Ha, rated after 12-17 days
[14] = tested on: velvetleaf (Abutilon theophrasti); test: Postemergence herbicidal activity, velvetleaf; conditions: rate of application 0.3 Kg/Ha, rated after 12-17 days
[15] = tested on: morningglory (Ipomea lacunosa or Ipomea hederacea); test: Postemergence herbicidal activity, morningglory; conditions: rate of application 0.3 Kg/Ha, rated after 12-17 days
[16] = tested on: common cocklebur (Xanthium strumarium L.); test: Postemergence herbicidal activity, cocklebur; conditions: rate of application 0.3 Kg/Ha, rated after 12-17 days
[17] = tested on: blackgrass (Aloepecurus myosuroides); test: Postemergence herbicidal activity, blackgrass; conditions: rate of application 0.3 Kg/Ha, rated after 12-17 days
Description: The benzofused heterocyclic compounds of this invention were tested for pre- and postemergence herbicidal activity using a variety of crops and weeds. The test plants included soybean (Glycine max var. Winchester), field corn (Zea mays var. Pioneer 3732), wheat (Triticum aestivum var. Lew), morningglory (Ipomea lacunosa or Ipomea hederacea), velvetleaf (Abutilon theophrasti), green foxtail (Setaria viridis), Johnsongrass (Sorghum halepense), blackgrass (Aloepecurus myosuroides), common chickweed (Stellaria media), and common cocklebur (Xanthium strumarium L.).
For preemergence testing, two disposable fiber flats (8 cm×15 cm×25 cm) for each rate of application of each candidate herbicide were filled to an approximate depth of 6.5 cm with steam-sterilized sandy loam soil. The soil was leveled and impressed with a template to provide five evenly spaced furrows 13 cm long and 0.5 cm deep in each flat. Seeds of soybean, wheat, corn, green foxtail, and johnsongrass were planted in the furrows of the first flat, and seeds of velvetleaf, morningglory, common chickweed, cocklebur, and blackgrass were planted in the furrows of the second flat. The five-row template was employed to firmly press the seeds into place. A topping soil of equal portions of sand and sandy loam soil was placed uniformly on top of each flat to a depth of approximately 0.5 cm. Flats for postemergence testing were prepared in the same manner except that they were planted 9-14 days prior to the preemergence flats and were placed in a greenhouse and watered, thus allowing the seeds to germinate and the foliage to develop.
In both pre- and postemergence tests, a stock solution of the candidate herbicide was prepared by dissolving 0.27 g of the compound in 20 mL of water/acetone (50/50) containing 0.5% v/v sorbitan monolaurate. For an application rate of 3000 g/ha of herbicide a 10 mL portion of the stock solution was diluted with water/acetone (50/50) to 45 mL.
The preemergence flats were initially subjected to a light water spray. The four flats were placed two by two along a conveyor belt (i.e., the two preemergence followed by the two postemergence flats). The conveyor belt fed under a spray nozzle mounted about ten inches above the post-emergent foliage. The preemergent flats were elevated on the belt so that the soil surface was at the same level below the spray nozzle as the foliage canopy of the postemergent plants. The spray of herbicidal solution was commenced and once stabilized, the flats were passed under the spray at a speed to receive a coverage equivalent of 100 L/ha. At this coverage the application rates are those shown in the above table for the individual herbicidal solutions. The preemergence flats were watered immediately thereafter, placed in the greenhouse and watered regularly at the soil surface. The postemergence flats were immediately placed in the green-house and not watered until 24 hours after treatment with the test solution. Thereafter they were regularly watered at ground level. After 12-17 days the plants were examined and the phytotoxicity data were recorded.
Phytotoxicity data were taken as percent control. Percent control was determined by a method similar to the 0 to 100 rating system disclosed in “Research Methods in Weed Science,” 2nd ed., B. Truelove, Ed.; Southern Weed Science Society; Auburn University, Auburn, Ala., 1977.

[18] = tested on: green foxtail (Setaria viridis); test: Postemergence herbicidal activity, green foxtail; conditions: rate of application 0.3 Kg/Ha, rated after 12-17 days
[19] = tested on: Johnsongrass (Sorghum halepense); test: Postemergence herbicidal activity, johnsongrass; conditions: rate of application 0.3 Kg/Ha, rated after 12-17 days

SMILES | PREEMERGENCE HERBICIDAL ACTIVITY (% CONTROL) SOY [1] | PREEMERGENCE HERBICIDAL ACTIVITY (% CONTROL) WHT [2] | PREEMERGENCE HERBICIDAL ACTIVITY (% CONTROL) CRN [3] | PREEMERGENCE HERBICIDAL ACTIVITY (% CONTROL) ABUTH [4] | PREEMERGENCE HERBICIDAL ACTIVITY (% CONTROL) IPOSS [5] | PREEMERGENCE HERBICIDAL ACTIVITY (% CONTROL) STEME [6] | PREEMERGENCE HERBICIDAL ACTIVITY (% CONTROL) XANPE [7] | PREEMERGENCE HERBICIDAL ACTIVITY (% CONTROL) ALOMY [8] | PREEMERGENCE HERBICIDAL ACTIVITY (% CONTROL) SETVI [9] | PREEMERGENCE HERBICIDAL ACTIVITY (% CONTROL) SORHA [10] | Postemergence herbicidal activity (% control) SOY [11] | Postemergence herbicidal activity (% control) WHT [12] | Postemergence herbicidal activity (% control) CRN [13] | Postemergence herbicidal activity (% control) ABUTH [14] | Postemergence herbicidal activity (% control) IPOSS [15] | Postemergence herbicidal activity (% control) XANPE [16] | Postemergence herbicidal activity (% control) ALOMY [17] | Postemergence herbicidal activity (% control) SETVI [18] | Postemergence herbicidal activity (% control) SORHA [19] | other results
COc1nc2c(-n3c(=O)cc(C(F)(F)F)n(C)c3=O)c(F)cc(Br)c2o1 [Compound 109, 1-METHYL-6-TRIFLUOROMETHYL-3-(7-BROMO-5-FLUORO-2-METHOXYBENZOXAZOL-4-YL)-2,4(1H,3H)-PYRIMIDINEDIONE] |  |  |  |  |  |  |  |  |  |  |  |  |  |  |  |  |  |  |  | inhibition at 300 g/ha ([1]; Glycine max, pre-emergence, read-out: PREEMERGENCE HERBICIDAL ACTIVITY (% CONTROL) SOY): 100%; inhibition at 300 g/ha ([2]; Triticum aestivum, pre-emergence, read-out: PREEMERGENCE HERBICIDAL ACTIVITY (% CONTROL) WHT): 100%; inhibition at 300 g/ha ([3]; Zea mays, pre-emergence, read-out: PREEMERGENCE HERBICIDAL ACTIVITY (% CONTROL) CRN): 90%; inhibition at 300 g/ha ([4]; Abutilon theophrasti, pre-emergence, read-out: PREEMERGENCE HERBICIDAL ACTIVITY (% CONTROL) ABUTH): 100%; inhibition at 300 g/ha ([5]; Ipomoea, pre-emergence, read-out: PREEMERGENCE HERBICIDAL ACTIVITY (% CONTROL) IPOSS): 100%; inhibition at 300 g/ha ([6]; Stellaria media, pre-emergence, read-out: PREEMERGENCE HERBICIDAL ACTIVITY (% CONTROL) STEME): 100%; inhibition at 300 g/ha ([7]; Xanthium strumarium, pre-emergence, read-out: PREEMERGENCE HERBICIDAL ACTIVITY (% CONTROL) XANPE): 100%; inhibition at 300 g/ha ([8]; Alopecurus myosuroides, pre-emergence, read-out: PREEMERGENCE HERBICIDAL ACTIVITY (% CONTROL) ALOMY): 100%; inhibition at 300 g/ha ([9]; Setaria viridis, pre-emergence, read-out: PREEMERGENCE HERBICIDAL ACTIVITY (% CONTROL) SETVI): 100%; inhibition at 300 g/ha ([10]; Sorghum halepense, pre-emergence, read-out: PREEMERGENCE HERBICIDAL ACTIVITY (% CONTROL) SORHA): 100%; inhibition at 300 g/ha ([11]; Glycine max, post-emergence, read-out: Postemergence herbicidal activity (% control) SOY): 90%; inhibition at 300 g/ha ([12]; Triticum aestivum, post-emergence, read-out: Postemergence herbicidal activity (% control) WHT): 90%; inhibition at 300 g/ha ([13]; Zea mays, post-emergence, read-out: Postemergence herbicidal activity (% control) CRN): 80%; inhibition at 300 g/ha ([14]; Abutilon theophrasti, post-emergence, read-out: Postemergence herbicidal activity (% control) ABUTH): 100%; inhibition at 300 g/ha ([15]; Ipomoea, post-emergence, read-out: Postemergence herbicidal activity (% control) IPOSS): 100%; inhibition at 300 g/ha ([16]; Xanthium strumarium, post-emergence, read-out: Postemergence herbicidal activity (% control) XANPE): 100%; inhibition at 300 g/ha ([17]; Alopecurus myosuroides, post-emergence, read-out: Postemergence herbicidal activity (% control) ALOMY): 90%; inhibition at 300 g/ha ([18]; Setaria viridis, post-emergence, read-out: Postemergence herbicidal activity (% control) SETVI): 100%; inhibition at 300 g/ha ([19]; Sorghum halepense, post-emergence, read-out: Postemergence herbicidal activity (% control) SORHA): 90%
C=CCOc1nc2c(-n3c(=O)cc(C(F)(F)F)n(C)c3=O)c(F)cc(Br)c2o1 [Compound 110] | 100% | 50% | 70% | 100% | 90% | 100% | 40% | 80% | 100% | 100% | 80% | 40% | 50% | 100% | 100% | 100% | 70% | 80% | 70% | 
Cn1c(C(F)(F)F)cc(=O)n(-c2c(F)cc(Cl)c3cc(CCF)oc23)c1=O [Compound 237] | 100% | 90% | 90% | 100% | 100% | 100% | 100% | 100% | 100% | 100% | 100% | 95% | 100% | 100% | 100% | 100% | 100% | 100% | 100% | 
Cn1c(C(F)(F)F)cc(=O)n(-c2ccc(Cl)c3cc(CO)oc23)c1=O [Compound 238] | 100% | 60% | 70% | 100% | 100% | 60% | 80% | 50% | 90% | 90% | 80% | 30% | 70% | 100% | 100% | 100% | 40% | 80% | 70% | 

— US6352958B1, “Cycloimido-substituted benzofused heterocyclic herbicides” (FMC Corporation, priority 1997, dated 2002)
